Measurements from US11312727B1, “Macrocyclic flu endonuclease inhibitors” (Janssen BioPharma, Inc., priority 2018, dated 2022).

Legend:
[1] = system: Influenza strain A549 A/WSN/33 (H1N1); assay: microbe, parasite or virus in culture; assay type: cell-based; settings: Influenza A virus, A549, 20 h, A549 cells, influenza A/WSN/33 (H1N1), 20 hours incubation; read-out: A549_A(H1N1) EC50
[2] = in vitro; settings: human, CC50, uninfected A549 cells, CellTiter-Glo

SMILES | EC50 [1] [nM] | CC50 [2] [nM]
O=C1c2c(O)c(=O)ccn2N2CN1C/C=C\COc1c(F)cccc1[C@H]2c1cccc(F)n1 (single isomer, unassigned) [Compound 104B, (18*S,*Z)-4-fluoro-18-(6-fluoropyridin-2-yl)-12-hydroxy-6,9-dihydro-18H-10,17-methanobenzo[b]pyrido[1,2-f][1]oxa[5,6,9]triazacyclotridecine-11,13-dione] | > 100 | > 200
CC[C@H]1C/C=C/COc2c(F)cccc2[C@@H](c2ccccc2)N2CN1C(=O)c1c(O)c(=O)ccn12 (single isomer, unassigned) [Compound 105AA, (2*R,9*S,*E)-9-ethyl-33-fluoro-15-hydroxy-2-phenyl-12,13,14,16-tetrahydro-11H-4-oxa-1(1,3)-pyrido[2,1-f][1,2,4]triazina-3(1,2)-benzenacyclononaphan-6-ene-14,16-dione] | 2.2 | > 200
CC[C@@H]1C/C=C/COc2c(F)cccc2[C@@H](c2ccccc2)N2CN1C(=O)c1c(O)c(=O)ccn12 (single isomer, unassigned) [Compound 105AB, (2*R,9*R,*E)-9-ethyl-33-fluoro-15-hydroxy-2-phenyl-12,13,14,16-tetrahydro-11H-4-oxa-1(1,3)-pyrido[2,1-f][1,2,4]triazina-3(1,2)-benzenacyclononaphan-6-ene-14,16-dione] | 1.9 | > 200
CC[C@H]1C/C=C/COc2c(F)cccc2[C@H](c2ccccc2)N2CN1C(=O)c1c(O)c(=O)ccn12 (single isomer, unassigned) [Compound 105BA, (2*S,9*S,*E)-9-ethyl-33-fluoro-15-hydroxy-2-phenyl-12,13,14,16-tetrahydro-11H-4-oxa-1(1,3)-pyrido[2,1-f][1,2,4]triazina-3(1,2)-benzenacyclononaphan-6-ene-14,16-dione] | > 100 | > 200
CC[C@@H]1C/C=C/COc2c(F)cccc2[C@H](c2ccccc2)N2CN1C(=O)c1c(O)c(=O)ccn12 (single isomer, unassigned) [Compound 105BB, (2*S,9*R,*E)-9-ethyl-33-fluoro-15-hydroxy-2-phenyl-12,13,14,16-tetrahydro-11H-4-oxa-1(1,3)-pyrido[2,1-f][1,2,4]triazina-3(1,2)-benzenacyclononaphan-6-ene-14,16-dione] | > 100 | > 200
O=C1c2c(O)c(=O)ccn2N2CN1C1(/C=C/COc3ccccc3[C@H]2c2ccccc2)CCC1 (single isomer, unassigned) [Compound 106A, (18′*R,E)-12′-hydroxy-18′-phenyl-6′H,18′H-spiro[cyclobutane-1,9′-[10,17]methanobenzo[b]pyrido[1,2-f][1]oxa[5,6,9]triazacyclotridecine]-11′,13′-dione] | 3.5 | > 200
O=C1c2c(O)c(=O)ccn2N2CN1C1(/C=C/COc3ccccc3[C@@H]2c2ccccc2)CCC1 (single isomer, unassigned) [Compound 106B, (18′*S,E)-12′-hydroxy-18′-phenyl-6′H,18′H-spiro[cyclobutane-1,9′-[10,17]methanobenzo[b]pyrido[1,2-f][1]oxa[5,6,9]triazacyclotridecine]-11′,13′-dione] | > 100 | > 200
O=C1c2c(O)c(=O)ccn2N2CN1C1(/C=C/COc3cccc4c3[C@@H]2c2ccccc2SC4)CC1 (single isomer, unassigned) [Compound 107A, (17a′*R,*E)-12′-hydroxy-2′,17a′-dihydro-6′H-spiro[cyclopropane-1,9′-[3,4](epiprop[1]en[1]yl[3]ylidene)[10,17]methanobenzo[6,7]thiepino[4,5-c]pyrido[1,2-f][1]oxa[5,6,9]triazacyclotridecine]-11′,13′-dione] | > 100 | > 200
O=C1c2c(O)c(=O)ccn2N2CN1C1(/C=C/COc3cccc4c3[C@H]2c2ccccc2SC4)CC1 (single isomer, unassigned) [Compound 107B, (17a′*S,*E)-12′-hydroxy-2′,17a′-dihydro-6′H-spiro[cyclopropane-1,9′-[3,4](epiprop[1]en[1]yl[3]ylidene)[10,17]methanobenzo[6,7]thiepino[4,5-c]pyrido[1,2-f][1]oxa[5,6,9]triazacyclotridecine]-11′,13′-dione] | 1 | > 100
O=C1c2c(O)c(=O)ccn2N2CN1C1(/C=C/COc3cc(F)c(F)c4c3[C@@H]2c2ccccc2SC4)CC1 (single isomer, unassigned) [Compound 108A, (17a′*R,*E)-24′,25′-difluoro-12′-hydroxy-2′,17a′-dihydro-6′H-spiro[cyclopropane-1,9′-[3,4](epiprop[1]en[1]yl[3]ylidene)[10,17]methanobenzo[6,7]thiepino[4,5-c]pyrido[1,2-f][1]oxa[5,6,9]triazacyclotridecine]-11′,13′-dione] | 840 | 22600
O=C1c2c(O)c(=O)ccn2N2CN1C1(/C=C/COc3cc(F)c(F)c4c3[C@H]2c2ccccc2SC4)CC1 (single isomer, unassigned) [Compound 108B, (17a′*S,*E)-24′,25′-difluoro-12′-hydroxy-2′,17a′-dihydro-6′H-spiro[cyclopropane-1,9′-[3,4](epiprop[1]en[1]yl[3]ylidene)[10,17]methanobenzo[6,7]thiepino[4,5-c]pyrido[1,2-f][1]oxa[5,6,9]triazacyclotridecine]-11′,13′-dione] | 0.2 | > 50
O=C1c2c(O)c(=O)ccn2N2CN1C1(/C=C\COc3cc(F)c(F)c4c3[C@@H]2c2ccccc2SC4)CC1 (single isomer, unassigned) [Compound 108C] | > 100 | > 200
O=C1c2c(O)c(=O)ccn2N2CN1C1(/C=C\COc3cc(F)c(F)c4c3[C@H]2c2ccccc2SC4)CC1 (single isomer, unassigned) [Compound 108D] | 0.9 | > 200
COC[C@@H]1N2C/C=C\COc3ccccc3[C@@H](c3ccccc3)N1n1ccc(=O)c(O)c1C2=O (single isomer, unassigned) [Compound 109A, (18*R,19*R,*Z)-12-hydroxy-19-(methoxymethyl)-18-phenyl-6,9-dihydro-18H-10,17-methanobenzo[b]pyrido[1,2-f][1]oxa[5,6,9]triazacyclotridecine-11,13-dione] | 6.6 | > 200
COC[C@H]1N2C/C=C\COc3ccccc3[C@H](c3ccccc3)N1n1ccc(=O)c(O)c1C2=O (single isomer, unassigned) [Compound 109B, (18*S,19*S,*Z)-12-hydroxy-19-(methoxymethyl)-18-phenyl-6,9-dihydro-18H-10,17-methanobenzo[b]pyrido[1,2-f][1]oxa[5,6,9]triazacyclotridecine-11,13-dione] | > 100 | > 200
Cc1cccc2c1OC/C=C\CN1CN([C@H]2c2ccccc2)n2ccc(=O)c(O)c2C1=O (single isomer, unassigned) [Compound 110A, (18*S,Z)-12-hydroxy-4-methyl-18-phenyl-6,9-dihydro-18H-10,17-methanobenzo[b]pyrido[1,2-f][1]oxa[5,6,9]triazacyclotridecine-11,13-dione] | 6.4 | > 200
Cc1cccc2c1OC/C=C\CN1CN([C@@H]2c2ccccc2)n2ccc(=O)c(O)c2C1=O (single isomer, unassigned) [Compound 110B, (18*R,Z)-12-hydroxy-4-methyl-18-phenyl-6,9-dihydro-18H-10,17-methanobenzo[b]pyrido[1,2-f][1]oxa[5,6,9]triazacyclotridecine-11,13-dione] | > 100 | > 200
O=C1c2c(O)c(=O)ccn2N2CN1CC/C=C/COc1c(ccc(Cl)c1Cl)[C@@H]2c1ccccc1 (single isomer, unassigned) [Compound 111A, (2*S,*E)-33,34-dichloro-15-hydroxy-2-phenyl-12,13,14,16-tetrahydro-11H-4-oxa-1(1,3)-pyrido[2,1-f][1,2,4]triazina-3(1,2)-benzenacyclononaphan-6-ene-14,16-dione] | 4.3 | > 200
O=C1c2c(O)c(=O)ccn2N2CN1CC/C=C/COc1c(ccc(F)c1F)[C@@H]2c1ccccc1 (single isomer, unassigned) [Compound 112A, (2*S,E)-33,34-difluoro-15-hydroxy-2-phenyl-12,13,14,16-tetrahydro-11H-4-oxa-1(1,3)-pyrido[2,1-f][1,2,4]triazina-3(1,2)-benzenacyclononaphan-6-ene-14,16-dione] | 3.8 | > 200
O=C1c2c(O)c(=O)ccn2N2CN1C1(/C=C/COc3c(ccc(Cl)c3Cl)[C@H]2c2ccccc2)CC1 (single isomer, unassigned) [Compound 113A, (18′*R,*E)-3′,4′-dichloro-12′-hydroxy-18′-phenyl-6′H,18′H-spiro[cyclopropane-1,9′-[10,17]methanobenzo[b]pyrido[1,2-f][1]oxa[5,6,9]triazacyclotridecine]-11′,13′-dione] | > 100 | > 200
O=C1c2c(O)c(=O)ccn2N2CN1C1(/C=C/COc3c(ccc(Cl)c3Cl)[C@@H]2c2ccccc2)CC1 (single isomer, unassigned) [Compound 113B, (18′*S,*E)-3′,4′-dichloro-12′-hydroxy-18′-phenyl-6′H,18′H-spiro[cyclopropane-1,9′-[10,17]methanobenzo[b]pyrido[1,2-f][1]oxa[5,6,9]triazacyclotridecine]-11′,13′-dione] | 2 | > 200
O=C1c2c(O)c(=O)ccn2N2CN1CCCCOc1c(F)cccc1[C@H]2c1ccccc1 (single isomer, unassigned) [Compound 114A, (18*R)-4-fluoro-12-hydroxy-18-phenyl-6,7,8,9-tetrahydro-18H-10,17-methanobenzo[b]pyrido[1,2-f][1]oxa[5,6,9]triazacyclotridecine-11,13-dione] | 7 | > 200
